For series [1], the target named is Matrix protein 2 (Influenza A virus (A/Udorn/307/1972(H3N2)), UniProt P0DOF8). The series is described as follows: Inhibition of Influenza A virus wild type M2 proton channel infected in Xenopus laevis oocytes after 2 mins by TEVC assay. In kind it is cell-based.
In another series the test system is MDCK. The series is described as follows: Cytotoxicity against MDCK cells assessed as cell viability after 72 hrs by MTT assay. In kind it is cell-based, Canis lupus familiaris. The note with it: dog. (Formazan colour is commonly taken as a measure of viable cells.)
A further series deals with Influenza A virus. The series is described as follows: Antiviral activity against Influenza A virus A/udorn/72(H3N2) expressing wild type M2 proton channel infected in MDCK cells assessed as reduction in plaque formation preincubated for 30 mins followed by infection measured on day 2 post infection by naphthalene black dye-based assay. In kind it is functional, organism-based, Influenza A virus (A/udorn/1972(H3N2)).

The record followed here is ChEMBL document CHEMBL3769344 (J Med Chem, 2016).

Structures are written as SMILES.

Sequence of Matrix protein 2 (Influenza A virus (A/Udorn/307/1972(H3N2)), UniProt P0DOF8) (P0DOF8 whole entry): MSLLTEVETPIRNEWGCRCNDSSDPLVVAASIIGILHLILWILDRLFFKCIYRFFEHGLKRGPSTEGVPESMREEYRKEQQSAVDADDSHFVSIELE

As for `C1CCC2(CC1)CCNCC2`, the IC50 in series [1] came to 0.9 µM. For the compound `OC1C2CC3CC1CC(NCc1cc(-c4cccs4)on1)(C3)C2` (configuration not stated), in the series with MDCK, the CC50 came to 116 µM. The same measure, in the same setting: the figure for `c1csc(-c2cc(NC34CC5CC(CC(C5)C3)C4)no2)c1` is 100 µM; for `c1csc(-c2ncc(CNC34CC5CC(CC(C5)C3)C4)s2)c1` it is 113 µM; for `c1csc(-c2nnc(CNC34CC5CC(CC(C5)C3)C4)s2)c1` it is > 200 µM. The same measure, in the same setting: to `OC12CC3CC(O)(C1)CC(NCc1cc(-c4cccs4)on1)(C3)C2` belongs > 200 µM. In the case of `NC12CC3CC(CC(C3)C1)C2` [AMANTADINE], the half-maximal effective concentration (EC50) in the series with Influenza A virus came out at 0.3 µM.

As a reminder, the IC50 is the point on the concentration scale where inhibition reaches its midpoint. A high value points to weaker potency in that assay. As usually defined, the CC50 is the concentration at which the toxic effect on the cells reaches its halfway point. A word on the EC50: it is the midpoint of the concentration-response curve.
